According to ChEMBL document CHEMBL4145544, “Discovery and optimization of 1-(1H-indol-1-yl)ethanone derivatives as CBP/EP300 bromodomain inhibitors for the treatment of castration-resistant prostate cancer” (Eur J Med Chem, 2018):
Active and inactive are the calls of the source. The rule behind the calls is not given here.

Experiments:
LNCaP [1] = experiment: Antiproliferative activity against human LNCAP cells after 72 hrs by Cell-Titer Glo assay; assay type: functional, cell-based; conditions: Homo sapiens, LNCaP, 72 h; read-out: IC50
PC-3 = experiment: Antiproliferative activity against human PC3 cells after 96 hrs by Cell-Titer Glo assay; assay type: functional, cell-based; conditions: PC-3, 96 h
MCF7 = experiment: Antiproliferative activity against human MCF7 cells after 96 hrs by Cell-Titer Glo assay; assay type: functional, cell-based; conditions: MCF7, 96 h
Hs-578T = experiment: Antiproliferative activity against human Hs 578T cells after 72 hrs by Cell-Titer Glo assay; assay type: functional, cell-based
MDA-MB-231 = experiment: Antiproliferative activity against human MDA-MB-231 cells after 96 hrs by Cell-Titer Glo assay; assay type: functional, cell-based; conditions: MDA-MB-231, 96 h
HFL1 = experiment: Antiproliferative activity against HFL1 cells after 72 hrs by Cell-Titer Glo assay; assay type: cell-based; conditions: Homo sapiens, HFL1, 72 h
L02 = experiment: Antiproliferative activity against human HL7702 cells after 96 hrs by Cell-Titer Glo assay; assay type: cell-based; conditions: L02, 96 h
LNCaP [2] = experiment: Potency index, ratio of enzalutamide IC50 to compound IC50 for antiproliferative activity against human LNCAP cells; assay type: functional
CWR22R [3] = experiment: Potency index, ratio of enzalutamide IC50 to compound IC50 for antiproliferative activity against human 22Rv1 cells; assay type: functional
CWR22R [4] = experiment: Anticlonogenic activity against human 22Rv1 cells after 14 days by crystal violet staining based assay; assay type: functional, cell-based
LNCaP C4-2B [5] = experiment: Anticlonogenic activity against human C4-2B cells after 14 days by crystal violet staining based assay; assay type: functional, cell-based
CWR22R [6] = experiment: Anticlonogenic activity against human 22Rv1 cells at 4 uM after 14 days by crystal violet staining based assay relative to control; assay type: functional
LNCaP C4-2B [7] = experiment: Anticlonogenic activity against human C4-2B cells at 4 uM after 14 days by crystal violet staining based assay relative to control; assay type: functional
[8] = molecular target: T1, CREB-binding protein/Histone acetyltransferase p300 (Homo sapiens) (UniProt Q09472+Q92793); experiment: Inhibition of EP300/CBP in human LNCAP cells assessed as downregulation of full length AR mRNA expression at 1 to 5 uM after 48 hrs by qRT-PCR method; assay type: cell-based
T1 sequence (Q09472 whole entry, looked up): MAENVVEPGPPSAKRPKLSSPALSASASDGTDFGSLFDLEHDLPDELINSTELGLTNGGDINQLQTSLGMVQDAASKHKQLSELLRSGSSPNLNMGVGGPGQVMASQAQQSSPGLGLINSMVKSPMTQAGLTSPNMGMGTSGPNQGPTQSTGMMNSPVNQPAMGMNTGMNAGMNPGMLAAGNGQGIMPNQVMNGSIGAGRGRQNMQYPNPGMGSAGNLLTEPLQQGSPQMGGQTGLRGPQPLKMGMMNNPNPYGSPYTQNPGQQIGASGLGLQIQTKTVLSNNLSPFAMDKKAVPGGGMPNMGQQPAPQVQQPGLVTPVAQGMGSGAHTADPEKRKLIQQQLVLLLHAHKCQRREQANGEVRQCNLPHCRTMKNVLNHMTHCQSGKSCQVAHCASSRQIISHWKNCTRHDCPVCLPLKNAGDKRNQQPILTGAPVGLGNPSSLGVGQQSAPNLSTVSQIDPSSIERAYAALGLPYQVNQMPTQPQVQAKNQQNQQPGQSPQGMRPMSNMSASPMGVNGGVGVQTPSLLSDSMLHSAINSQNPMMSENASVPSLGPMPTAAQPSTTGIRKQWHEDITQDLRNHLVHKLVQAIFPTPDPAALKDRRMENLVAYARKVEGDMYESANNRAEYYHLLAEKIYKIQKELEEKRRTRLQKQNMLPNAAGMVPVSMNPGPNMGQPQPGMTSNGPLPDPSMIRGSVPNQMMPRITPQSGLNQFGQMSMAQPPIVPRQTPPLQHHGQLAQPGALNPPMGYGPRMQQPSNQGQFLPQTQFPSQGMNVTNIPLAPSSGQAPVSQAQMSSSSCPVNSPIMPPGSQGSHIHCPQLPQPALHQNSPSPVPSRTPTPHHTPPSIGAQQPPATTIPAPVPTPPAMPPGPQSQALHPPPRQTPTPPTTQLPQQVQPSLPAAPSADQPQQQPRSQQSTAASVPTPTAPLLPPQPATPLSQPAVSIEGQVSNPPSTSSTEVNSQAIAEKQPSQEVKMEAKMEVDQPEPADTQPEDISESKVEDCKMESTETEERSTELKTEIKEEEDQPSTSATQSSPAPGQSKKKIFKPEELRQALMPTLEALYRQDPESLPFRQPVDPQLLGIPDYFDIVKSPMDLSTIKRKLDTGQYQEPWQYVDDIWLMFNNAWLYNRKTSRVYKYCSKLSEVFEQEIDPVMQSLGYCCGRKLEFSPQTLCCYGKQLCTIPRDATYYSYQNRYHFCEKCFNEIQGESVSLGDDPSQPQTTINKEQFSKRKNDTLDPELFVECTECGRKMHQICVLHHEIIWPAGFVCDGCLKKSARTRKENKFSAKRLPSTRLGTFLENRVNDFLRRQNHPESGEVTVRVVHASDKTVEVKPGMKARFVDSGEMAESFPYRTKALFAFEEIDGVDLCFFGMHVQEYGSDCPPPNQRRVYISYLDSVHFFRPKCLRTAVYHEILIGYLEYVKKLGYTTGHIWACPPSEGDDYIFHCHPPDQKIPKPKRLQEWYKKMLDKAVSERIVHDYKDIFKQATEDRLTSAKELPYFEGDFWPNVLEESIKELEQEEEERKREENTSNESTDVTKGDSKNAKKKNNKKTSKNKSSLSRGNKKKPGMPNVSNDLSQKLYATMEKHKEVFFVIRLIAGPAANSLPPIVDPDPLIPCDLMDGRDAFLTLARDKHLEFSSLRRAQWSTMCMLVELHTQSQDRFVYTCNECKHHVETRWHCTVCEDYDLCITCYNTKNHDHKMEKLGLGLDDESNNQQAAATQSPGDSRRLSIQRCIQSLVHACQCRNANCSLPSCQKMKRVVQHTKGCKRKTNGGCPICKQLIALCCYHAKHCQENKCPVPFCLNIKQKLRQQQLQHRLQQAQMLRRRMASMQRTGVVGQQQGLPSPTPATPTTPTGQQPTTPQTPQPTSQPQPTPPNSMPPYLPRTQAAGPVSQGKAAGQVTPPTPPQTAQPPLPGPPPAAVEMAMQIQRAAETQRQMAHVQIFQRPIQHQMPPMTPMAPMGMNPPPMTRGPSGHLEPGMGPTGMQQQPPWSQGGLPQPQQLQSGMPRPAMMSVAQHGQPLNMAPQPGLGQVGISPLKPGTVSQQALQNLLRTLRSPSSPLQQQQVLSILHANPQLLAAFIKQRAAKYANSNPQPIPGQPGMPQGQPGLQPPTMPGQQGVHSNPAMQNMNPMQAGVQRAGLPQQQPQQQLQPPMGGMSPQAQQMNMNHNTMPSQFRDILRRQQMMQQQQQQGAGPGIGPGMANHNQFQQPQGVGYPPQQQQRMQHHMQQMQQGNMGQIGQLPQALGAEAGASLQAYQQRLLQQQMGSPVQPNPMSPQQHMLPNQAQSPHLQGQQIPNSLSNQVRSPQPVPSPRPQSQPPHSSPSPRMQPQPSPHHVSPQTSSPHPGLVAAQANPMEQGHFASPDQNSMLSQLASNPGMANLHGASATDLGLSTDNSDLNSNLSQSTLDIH
T1 sequence (Q92793 whole entry, looked up): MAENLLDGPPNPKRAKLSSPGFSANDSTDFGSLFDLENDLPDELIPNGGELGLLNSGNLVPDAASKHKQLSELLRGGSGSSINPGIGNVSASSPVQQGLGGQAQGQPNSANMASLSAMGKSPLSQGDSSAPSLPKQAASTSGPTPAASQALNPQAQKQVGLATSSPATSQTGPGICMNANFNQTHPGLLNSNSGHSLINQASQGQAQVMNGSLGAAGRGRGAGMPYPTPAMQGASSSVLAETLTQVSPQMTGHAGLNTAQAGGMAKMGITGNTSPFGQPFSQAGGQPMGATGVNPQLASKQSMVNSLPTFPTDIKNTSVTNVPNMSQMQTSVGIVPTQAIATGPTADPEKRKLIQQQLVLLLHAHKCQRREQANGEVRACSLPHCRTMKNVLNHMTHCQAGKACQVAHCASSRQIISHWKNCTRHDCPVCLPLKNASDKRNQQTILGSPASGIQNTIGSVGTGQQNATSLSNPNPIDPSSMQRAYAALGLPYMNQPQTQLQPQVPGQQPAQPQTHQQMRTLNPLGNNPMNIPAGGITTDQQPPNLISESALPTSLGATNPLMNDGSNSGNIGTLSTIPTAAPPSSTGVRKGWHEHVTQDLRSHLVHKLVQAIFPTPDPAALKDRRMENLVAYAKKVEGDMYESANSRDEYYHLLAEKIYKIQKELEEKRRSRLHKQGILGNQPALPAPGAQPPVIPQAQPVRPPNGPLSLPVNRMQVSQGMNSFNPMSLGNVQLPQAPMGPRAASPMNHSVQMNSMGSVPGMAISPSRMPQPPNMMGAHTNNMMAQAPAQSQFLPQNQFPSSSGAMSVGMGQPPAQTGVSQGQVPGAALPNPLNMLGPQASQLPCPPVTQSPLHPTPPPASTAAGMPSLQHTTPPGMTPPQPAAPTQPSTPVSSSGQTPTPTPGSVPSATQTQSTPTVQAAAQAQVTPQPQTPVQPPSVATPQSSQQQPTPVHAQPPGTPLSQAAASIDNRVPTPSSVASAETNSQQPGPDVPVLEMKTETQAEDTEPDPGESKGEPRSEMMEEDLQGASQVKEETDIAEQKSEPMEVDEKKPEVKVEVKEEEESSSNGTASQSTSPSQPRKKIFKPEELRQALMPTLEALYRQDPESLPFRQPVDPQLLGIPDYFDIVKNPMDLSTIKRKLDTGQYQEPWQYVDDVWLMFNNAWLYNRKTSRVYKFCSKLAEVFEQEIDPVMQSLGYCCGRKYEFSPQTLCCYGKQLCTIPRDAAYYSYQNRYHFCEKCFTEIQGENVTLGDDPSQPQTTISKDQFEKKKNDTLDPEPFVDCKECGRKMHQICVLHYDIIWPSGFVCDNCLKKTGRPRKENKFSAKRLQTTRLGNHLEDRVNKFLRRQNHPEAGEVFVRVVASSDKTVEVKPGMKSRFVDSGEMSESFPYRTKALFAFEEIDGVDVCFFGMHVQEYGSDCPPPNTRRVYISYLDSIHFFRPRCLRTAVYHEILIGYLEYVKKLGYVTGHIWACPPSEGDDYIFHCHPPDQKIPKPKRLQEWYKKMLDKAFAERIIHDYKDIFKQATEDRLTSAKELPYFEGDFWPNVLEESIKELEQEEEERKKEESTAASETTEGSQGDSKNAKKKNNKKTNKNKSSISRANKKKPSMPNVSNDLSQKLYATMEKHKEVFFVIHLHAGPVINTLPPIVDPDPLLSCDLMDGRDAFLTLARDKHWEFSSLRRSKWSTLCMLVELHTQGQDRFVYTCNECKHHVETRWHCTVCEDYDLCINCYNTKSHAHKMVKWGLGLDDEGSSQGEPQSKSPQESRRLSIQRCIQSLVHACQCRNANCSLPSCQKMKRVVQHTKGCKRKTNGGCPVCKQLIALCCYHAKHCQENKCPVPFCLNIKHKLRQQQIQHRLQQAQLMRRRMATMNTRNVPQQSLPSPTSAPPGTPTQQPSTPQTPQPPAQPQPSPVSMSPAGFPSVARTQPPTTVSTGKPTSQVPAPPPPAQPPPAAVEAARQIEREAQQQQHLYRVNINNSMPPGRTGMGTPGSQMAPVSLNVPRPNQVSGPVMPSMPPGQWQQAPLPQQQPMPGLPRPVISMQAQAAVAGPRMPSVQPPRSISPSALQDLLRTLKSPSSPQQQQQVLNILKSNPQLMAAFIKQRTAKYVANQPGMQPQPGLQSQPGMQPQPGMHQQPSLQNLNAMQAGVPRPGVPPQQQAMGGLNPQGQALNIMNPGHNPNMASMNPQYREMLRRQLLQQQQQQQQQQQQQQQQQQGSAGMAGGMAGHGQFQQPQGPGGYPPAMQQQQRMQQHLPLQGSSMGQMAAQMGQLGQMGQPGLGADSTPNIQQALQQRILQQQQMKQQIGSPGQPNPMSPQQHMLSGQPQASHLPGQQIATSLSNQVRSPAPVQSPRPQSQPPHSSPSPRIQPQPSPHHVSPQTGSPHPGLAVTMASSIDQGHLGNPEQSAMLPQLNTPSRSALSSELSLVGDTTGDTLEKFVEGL

[9] = molecular target: T1, CREB-binding protein/Histone acetyltransferase p300 (Homo sapiens); experiment: Inhibition of EP300/CBP in human LNCAP cells assessed as downregulation of AR-regulated KLK2 mRNA expression at 1 to 5 uM after 48 hrs by qRT-PCR method; assay type: cell-based
[10] = molecular target: T1, CREB-binding protein/Histone acetyltransferase p300 (Homo sapiens); experiment: Inhibition of EP300/CBP in human LNCAP cells assessed as downregulation of AR-regulated PSA mRNA expression at 1 to 5 uM after 48 hrs by qRT-PCR method; assay type: cell-based
[11] = molecular target: T1, CREB-binding protein/Histone acetyltransferase p300 (Homo sapiens); experiment: Inhibition of EP300/CBP in human LNCAP cells assessed as downregulation of AR-regulated TMPRSS2 mRNA expression at 1 to 5 uM after 48 hrs by qRT-PCR method; assay type: cell-based
[12] = molecular target: T1, CREB-binding protein/Histone acetyltransferase p300 (Homo sapiens); experiment: Inhibition of EP300/CBP in human LNCAP cells assessed as downregulation of Myc mRNA expression at 1 to 5 uM after 48 hrs by qRT-PCR method; assay type: cell-based
[13] = molecular target: T1, CREB-binding protein/Histone acetyltransferase p300 (Homo sapiens); experiment: Inhibition of EP300/CBP in human LNCAP cells transfected with PSA-Luc reporter plasmid after 24 hrs by luciferase reporter gene assay; assay type: cell-based
CWR22R [14] = experiment: cells; conditions: Homo sapiens, 22Rv1, 72 h
Description: Antiproliferative activity against human 22Rv1 cells after 72 hrs by Cell-Titer Glo assay

COc1ccc2c(c1)c(C(=O)Nc1cc(C(=O)OC(C)(C)C)cc(-c3cnn(C)c3)c1F)cn2C(C)=O
IC50 (LNCaP [1]): 2.01 µM | IC50 (PC-3): 25.8 µM | IC50 (MCF7): 7.46 µM | IC50 (Hs-578T): 15.1 µM | IC50 (MDA-MB-231): 36 µM | IC50 (HFL1): > 100 µM | IC50 (L02): 40 µM | Ratio IC50 (LNCaP [2]): 17 | Ratio IC50 (CWR22R [3]): 17 | Activity (CWR22R [4]): Dose-dependent effect | Activity (LNCaP C4-2B [5]): Dose-dependent effect | Activity (CWR22R [6]): <10% | Activity (LNCaP C4-2B [7]): <10% | inhibition [8]: Active | inhibition [9]: Active | inhibition [10]: Active | inhibition [11]: Active | inhibition [12]: Active | inhibition [13]: Dose-dependent effect | IC50 (CWR22R [14]): 2.13 µM
